Molecular target: T1, CRF1 receptors (Homo sapiens, UniProt P34998)
T1 construct: endogenous in cells; host or cells: IMR-32 cells, transformed with 2.5 µM 5'-bromo-2'-deoxyuridine for 10 days; membrane preparation
T1 sequence (P34998 24-415): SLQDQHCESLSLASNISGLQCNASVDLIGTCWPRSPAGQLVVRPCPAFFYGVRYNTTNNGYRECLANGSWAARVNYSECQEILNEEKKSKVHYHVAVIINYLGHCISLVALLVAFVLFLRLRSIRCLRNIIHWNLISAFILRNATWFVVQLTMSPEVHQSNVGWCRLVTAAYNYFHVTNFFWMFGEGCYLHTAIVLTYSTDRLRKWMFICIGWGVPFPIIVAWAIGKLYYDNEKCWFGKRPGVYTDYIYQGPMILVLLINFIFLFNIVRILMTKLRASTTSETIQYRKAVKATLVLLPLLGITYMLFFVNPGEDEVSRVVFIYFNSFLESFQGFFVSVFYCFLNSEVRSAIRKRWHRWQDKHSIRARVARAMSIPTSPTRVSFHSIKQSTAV
Experiment: CRF1 receptor radioligand binding assay ([125I]-oCRF competition, IMR-32 cell membranes)
Details: IMR-32 cell membranes, [125I]-oCRF 100 pM; read-out: Ki (CRF-1R)
Method in brief: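 Buffer: Tris pH 7.2 with MgCl2, BSA, Triton X-100, aprotinin, leupeptin; reaction stopped with ice-cold wash and filtered. Nonspecific binding set with 10 μM oCRF.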

| Compound | Ki [µM] |
| --- | --- |
| Cc1cc(C)c(N2CCCn3c2nc(C(F)(F)F)c3CN2CCCCC2C)c(Cl)c1 (stereo not drawn) [Example 100, 8-(2-Chloro-4,6-dimethyl-phenyl)-3-(2-methyl-piperidin-1-ylmethyl)-2-trifluoromethyl-5,6,7,8-tetrahydro-imidazo[1,2-a]pyrimidine] | < 1 |
| Cc1cc(C)c(N2CCCn3c2nc(C(F)(F)F)c3CN2CCCC(C)C2)c(Cl)c1 (stereo not drawn) [Example 101, 8-(2-Chloro-4,6-dimethyl-phenyl)-3-(3-methyl-piperidin-1-ylmethyl)-2-trifluoromethyl-5,6,7,8-tetrahydro-imidazo[1,2-a]pyrimidine] | < 1 |
| Cc1cc(C)c(N2CCCn3c2nc(C(F)(F)F)c3CN2CCC(C)CC2)c(Cl)c1 [Example 102, 8-(2-Chloro-4,6-dimethyl-phenyl)-3-(4-methyl-piperidin-1-ylmethyl)-2-trifluoromethyl-5,6,7,8-tetrahydro-imidazo[1,2-a]pyrimidine] | < 1 |
| C=CCN(CC=C)Cc1c(C(F)(F)F)nc2n1CCCN2c1c(C)cc(C)cc1Cl [Example 103, Diallyl-[8-(2-chloro-4,6-dimethyl-phenyl)-2-trifluoromethyl-5,6,7,8-tetrahydro-imidazo[1,2-a]pyrimidin-3-ylmethyl]-amine] | < 0.1 |
| CCCCN(C)Cc1c(C(F)(F)F)nc2n1CCCN2c1c(C)cc(C)cc1Cl [Example 104, Butyl-[8-(2-chloro-4,6-dimethyl-phenyl)-2-trifluoromethyl-5,6,7,8-tetrahydro-imidazo[1,2-a]pyrimidin-3-ylmethyl]-methyl-amine] | < 1 |
| CCCCN(Cc1ccccc1)Cc1c(C(F)(F)F)nc2n1CCCN2c1c(C)cc(C)cc1Cl [Example 105, Benzyl-butyl-[8-(2-chloro-4,6-dimethyl-phenyl)-2-trifluoromethyl-5,6,7,8-tetrahydro-imidazo[1,2-a]pyrimidin-3-ylmethyl]-amine] | < 1 |
| C=C(C)CN(CC)Cc1c(C(F)(F)F)nc2n1CCCN2c1c(C)cc(C)cc1Cl [Example 106, [8-(2-Chloro-4,6-dimethyl-phenyl)-2-trifluoromethyl-5,6,7,8-tetrahydro-imidazo[1,2-a]pyrimidin-3-ylmethyl]-ethyl-(2-methyl-allyl)-amine] | < 1 |
| Cc1cc(C)c(N2CCCn3c2nc(C(F)(F)F)c3CN(C)Cc2ccccc2)c(Cl)c1 [Example 107, Benzyl-[8-(2-chloro-4,6-dimethyl-phenyl)-2-trifluoromethyl-5,6,7,8-tetrahydro-imidazo[1,2-a]pyrimidin-3-ylmethyl]-methyl-amine] | < 1 |
| CCCCN(CC)Cc1c(C(F)(F)F)nc2n1CCCN2c1c(C)cc(C)cc1Cl [Example 108, Butyl-[8-(2-chloro-4,6-dimethyl-phenyl)-2-trifluoromethyl-5,6,7,8-tetrahydro-imidazo[1,2-a]pyrimidin-3-ylmethyl]-ethyl-amine] | < 1 |
| CCCN(CCC)Cc1c(C(F)(F)F)nc2n1CCCN2c1c(C)cc(C)cc1Cl [Example 109, [8-(2-Chloro-4,6-dimethyl-phenyl)-2-trifluoromethyl-5,6,7,8-tetrahydro-imidazo[1,2-a]pyrimidin-3-ylmethyl]-dipropyl-amine] | < 1 |
| CCCN(CCOC)Cc1c(C(F)(F)F)nc2n1CCCN2c1c(C)cc(C)cc1Cl [Example 110, [8-(2-Chloro-4,6-dimethyl-phenyl)-2-trifluoromethyl-5,6,7,8-tetrahydro-imidazo[1,2-a]pyrimidin-3-ylmethyl]-(2-methoxy-ethyl)-propyl-amine] | < 1 |
| CCCN(Cc1c(C(F)(F)F)nc2n1CCCN2c1c(C)cc(C)cc1Cl)CC1CCC1 [Example 111, [8-(2-Chloro-4,6-dimethyl-phenyl)-2-trifluoromethyl-5,6,7,8-tetrahydro-imidazo[1,2-a]pyrimidin-3-ylmethyl]-cyclobutylmethyl-propyl-amine] | < 1 |
| Cc1cc(C)c(N2CCCn3c2nc(C(F)(F)F)c3CN(CC2CCC2)CC(F)(F)F)c(Cl)c1 [Example 112, [8-(2-Chloro-4,6-dimethyl-phenyl)-2-trifluoromethyl-5,6,7,8-tetrahydro-imidazo[1,2-a]pyrimidin-3-ylmethyl]-cyclobutylmethyl-(2,2,2-trifluoro-ethyl)-amine] | < 0.1 |
| CCN(Cc1c(C(F)(F)F)nc2n1CCCN2c1c(C)cc(C)cc1Cl)CC1CC1 [Example 113, [8-(2-Chloro-4,6-dimethyl-phenyl)-2-trifluoromethyl-5,6,7,8-tetrahydro-imidazo[1,2-a]pyrimidin-3-ylmethyl]-cyclopropylmethyl-ethyl-amine] | < 0.1 |
| CCCN(Cc1c(C(F)(F)F)nc2n1CCCN2c1c(C)cc(C)cc1Cl)CC(F)(F)F [Example 114, [8-(2-Chloro-4,6-dimethyl-phenyl)-2-trifluoromethyl-5,6,7,8-tetrahydro-imidazo[1,2-a]pyrimidin-3-ylmethyl]-propyl-(2,2,2-trifluoro-ethyl)-amine] | < 1 |
| Cc1cc(C)c(N2CCCn3c2nc(C(F)(F)F)c3CN(CC2CC2)CC(F)(F)C(F)(F)F)c(Cl)c1 [Example 115, [8-(2-Chloro-4,6-dimethyl-phenyl)-2-trifluoromethyl-5,6,7,8-tetrahydro-imidazo[1,2-a]pyrimidin-3-ylmethyl]-cyclopropylmethyl-(2,2,3,3,3-pentafluoro-propyl)-amine] | < 0.1 |
| CCCN(CCC(F)(F)F)Cc1c(C(F)(F)F)nc2n1CCCN2c1c(C)cc(C)cc1Cl [Example 116, [8-(2-Chloro-4,6-dimethyl-phenyl)-2-trifluoromethyl-5,6,7,8-tetrahydro-imidazo[1,2-a]pyrimidin-3-ylmethyl]-propyl-(3,3,3-trifluoro-propyl)-amine] | < 1 |
| CCCN(Cc1c(C(F)(F)F)nc2n1CCCN2c1c(C)cc(C)cc1Cl)CC(F)(F)C(F)(F)F [Example 117, [8-(2-Chloro-4,6-dimethyl-phenyl)-2-trifluoromethyl-5,6,7,8-tetrahydro-imidazo[1,2-a]pyrimidin-3-ylmethyl]-(2,2,3,3,3-pentafluoro-propyl)-propyl-amine] | < 1 |
| Cc1cc(C)c(N2CCCn3c2nc(C(F)(F)F)c3CN(CCc2ccccc2)CCC(F)(F)F)c(Cl)c1 [Example 118, [8-(2-Chloro-4,6-dimethyl-phenyl)-2-trifluoromethyl-5,6,7,8-tetrahydro-imidazo[1,2-a]pyrimidin-3-ylmethyl]-phenethyl-(3,3,3-trifluoro-propyl)-amine] | < 1 |
| Cc1cc(C)c(N2CCCn3c2nc(C(F)(F)F)c3CN(CCc2ccccc2)CC(F)(F)F)c(Cl)c1 [Example 119, [8-(2-Chloro-4,6-dimethyl-phenyl)-2-trifluoromethyl-5,6,7,8-tetrahydro-imidazo[1,2-a]pyrimidin-3-ylmethyl]-phenethyl-(2,2,2-trifluoro-ethyl)-amine] | < 1 |
| CCN(CCc1ccccc1)Cc1c(C(F)(F)F)nc2n1CCCN2c1c(C)cc(C)cc1Cl [Example 120, [8-(2-Chloro-4,6-dimethyl-phenyl)-2-trifluoromethyl-5,6,7,8-tetrahydro-imidazo[1,2-a]pyrimidin-3-ylmethyl]-ethyl-phenethyl-amine] | < 1 |
| CCCN(CCc1ccccc1)Cc1c(C(F)(F)F)nc2n1CCCN2c1c(C)cc(C)cc1Cl [Example 121, [8-(2-Chloro-4,6-dimethyl-phenyl)-2-trifluoromethyl-5,6,7,8-tetrahydro-imidazo[1,2-a]pyrimidin-3-ylmethyl]-phenethyl-propyl-amine] | < 1 |
| Cc1cc(C)c(N2CCCn3c2nc(C(F)(F)F)c3CN(CCC2CC2)CCC(F)(F)F)c(Cl)c1 [Example 122, [8-(2-Chloro-4,6-dimethyl-phenyl)-2-trifluoromethyl-5,6,7,8-tetrahydro-imidazo[1,2-a]pyrimidin-3-ylmethyl]-(2-cyclopropyl-ethyl)-(3,3,3-trifluoro-propyl)-amine] | < 1 |
| CCN(CCC1CC1)Cc1c(C(F)(F)F)nc2n1CCCN2c1c(C)cc(C)cc1Cl [Example 123, [8-(2-Chloro-4,6-dimethyl-phenyl)-2-trifluoromethyl-5,6,7,8-tetrahydro-imidazo[1,2-a]pyrimidin-3-ylmethyl]-(2-cyclopropyl-ethyl)-ethyl-amine] | < 1 |
| CCCN(CCC1CC1)Cc1c(C(F)(F)F)nc2n1CCCN2c1c(C)cc(C)cc1Cl [Example 124, [8-(2-Chloro-4,6-dimethyl-phenyl)-2-trifluoromethyl-5,6,7,8-tetrahydro-imidazo[1,2-a]pyrimidin-3-ylmethyl]-(2-cyclopropyl-ethyl)-propyl-amine] | < 1 |
| Cc1cc(C)c(N2CCCn3c2nc(C(F)(F)F)c3CN(CCC(F)(F)F)Cc2ccccc2)c(Cl)c1 [Example 125, Benzyl-[8-(2-chloro-4,6-dimethyl-phenyl)-2-trifluoromethyl-5,6,7,8-tetrahydro-imidazo[1,2-a]pyrimidin-3-ylmethyl]-(3,3,3-trifluoro-propyl)-amine] | < 1 |
| Cc1cc(C)c(N2CCCn3c2nc(C(F)(F)F)c3CN(CCC2CC2)CC(F)(F)F)c(Cl)c1 [Example 126, [8-(2-Chloro-4,6-dimethyl-phenyl)-2-trifluoromethyl-5,6,7,8-tetrahydro-imidazo[1,2-a]pyrimidin-3-ylmethyl]-(2-cyclopropyl-ethyl)-(2,2,2-trifluoro-ethyl)-amine] | < 1 |
